Results reported in BigSolDB 2.1.

CCn1c2ccccc2c2cc(-n3nncc3-c3ccccc3)ccc21
Conditions | solubility (mole fraction)
in acetonitrile, 281.7 K | 0.00188
in acetonitrile, 287.8 K | 0.00249
in acetonitrile, 295.4 K | 0.00335
in acetonitrile, 304.8 K | 0.00485
in acetonitrile, 312.3 K | 0.0066
in acetonitrile, 319.4 K | 0.00933
in acetonitrile, 325 K | 0.0125
in ethanol, 279.2 K | 0.000406
in ethanol, 281.5 K | 0.000428
in ethanol, 285.8 K | 0.000529
in ethanol, 288.8 K | 0.000598
in ethanol, 291.9 K | 0.000685
in ethanol, 297.2 K | 0.000847
in ethanol, 307.8 K | 0.00136
in ethanol, 313 K | 0.0017
in ethanol, 318.9 K | 0.00222
in ethanol, 323.2 K | 0.00274
in ethanol, 329 K | 0.00376
in ethyl acetate, 278.9 K | 0.00403
in ethyl acetate, 282.5 K | 0.00438
in ethyl acetate, 288.6 K | 0.00531
in ethyl acetate, 293.8 K | 0.0062
in ethyl acetate, 296.6 K | 0.00681
in ethyl acetate, 301.9 K | 0.00793
in ethyl acetate, 306.3 K | 0.00903
in ethyl acetate, 310.5 K | 0.0103
in ethyl acetate, 318 K | 0.0129
in ethyl acetate, 322.8 K | 0.0154
in ethyl acetate, 326.9 K | 0.0182
in isopropanol, 279.4 K | 0.000218
in isopropanol, 290.4 K | 0.000352
in isopropanol, 294.2 K | 0.000467
in isopropanol, 298.4 K | 0.000571
in isopropanol, 300.9 K | 0.000684
in isopropanol, 304.6 K | 0.000794
in isopropanol, 307.7 K | 0.000913
in isopropanol, 311 K | 0.00113
in isopropanol, 319.5 K | 0.00181
in isopropanol, 324.1 K | 0.00226
in isopropanol, 330.2 K | 0.00329
in methanol, 279.3 K | 0.000409
in methanol, 281.9 K | 0.000468
in methanol, 288.2 K | 0.000591
in methanol, 300.7 K | 0.000949
in methanol, 306.1 K | 0.00116
in methanol, 314.8 K | 0.00165
in methanol, 320.7 K | 0.00222
in methanol, 325 K | 0.00279
in n-butanol, 280.1 K | 0.000585
in n-butanol, 283.7 K | 0.000684
in n-butanol, 288.6 K | 0.000848
in n-butanol, 292.7 K | 0.00111
in n-butanol, 298.2 K | 0.00138
in n-butanol, 307.4 K | 0.00221
in n-butanol, 312.6 K | 0.00276
in n-butanol, 320.4 K | 0.00401
in n-butanol, 331.5 K | 0.00688
in n-propanol, 283 K | 0.000556
in n-propanol, 285.1 K | 0.00067
in n-propanol, 288.8 K | 0.000774
in n-propanol, 297.1 K | 0.00111
in n-propanol, 307 K | 0.00177
in n-propanol, 312.2 K | 0.00223
in n-propanol, 319.4 K | 0.00314
in n-propanol, 325.2 K | 0.00418
in n-propanol, 330.2 K | 0.00554
in sec-butanol, 279.9 K | 0.000287
in sec-butanol, 283.2 K | 0.000366
in sec-butanol, 291.7 K | 0.000592
in sec-butanol, 294.6 K | 0.00073
in sec-butanol, 298.4 K | 0.000892
in sec-butanol, 306.7 K | 0.00149
in sec-butanol, 315.7 K | 0.0024
in sec-butanol, 319.1 K | 0.00295
in sec-butanol, 321.3 K | 0.0034
in sec-butanol, 329.5 K | 0.0053
